Laboratory results published in US20160244437A1, “SUBSTITUTED PHENYLALANINE DERIVATIVES” (BAYER PHARMA AKTIENGESELLSCHAFT, priority 2013, published 2016).
Counter-ions that a name gives are not always drawn.

Key:
human and animal plasma = experiment: Determination of anticoagulatory activity: activated partial thromboplastin time (aPTT) in plasma; settings: concentration of test substance which brings about a 1.5-fold extension of the aPTT; plasma in vitro, C.K. Prest kit
Protocol: The anticoagulatory activity of the test substances is determined in vitro in human and animal plasma (for example mouse, rat, rabbit, pig and dog plasma). To this end, blood is drawn off in a mixing ratio of sodium citrate/blood of 1:9 using a 0.11 molar sodium citrate solution as receiver. Immediately after the blood has been drawn off, it is mixed thoroughly and centrifuged at about 4000 g for 15 minutes. The supernatant is pipetted off.
The activated partial thromboplastin time (aPTT) is determined in the presence of varying concentrations of test substance or the corresponding solvent using a commercial test kit (C.K. Prest from Diagnostica Stago). The test compounds are incubated with the plasma and the PTT reagent (cephalin, kaolin) at 37° C. for 3 minutes. Coagulation is then started by addition of a 25 mM aqueous calcium chloride solution, and the time when coagulation occurs is determined. The concentration of test substance which brings about a 1.5-fold extension of the aPTT is determined.

human factor XIa = target: T1, human factor XIa (Homo sapiens, UniProt P03951); experiment: Measurement of FXIa inhibition (fluorogenic peptide substrate Boc-Glu(OBzl)-Ala-Arg-AMC); format: biochemical; settings: factor XIa from Kordia 0.45 nM, 15 min pre-incubation, 30 min at 22° C., fluorescence
T1 construct: purchased Kordia
T1 sequence (P03951 388-625 limits assumed): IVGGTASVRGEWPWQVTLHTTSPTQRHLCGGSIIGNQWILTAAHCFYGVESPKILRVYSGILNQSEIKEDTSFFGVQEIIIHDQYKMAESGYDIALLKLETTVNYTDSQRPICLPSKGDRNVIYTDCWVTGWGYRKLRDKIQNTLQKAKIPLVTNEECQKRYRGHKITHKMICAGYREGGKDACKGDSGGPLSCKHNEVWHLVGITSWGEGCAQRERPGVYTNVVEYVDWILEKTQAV
T1 sequence (P03951 19-387 partner limits assumed): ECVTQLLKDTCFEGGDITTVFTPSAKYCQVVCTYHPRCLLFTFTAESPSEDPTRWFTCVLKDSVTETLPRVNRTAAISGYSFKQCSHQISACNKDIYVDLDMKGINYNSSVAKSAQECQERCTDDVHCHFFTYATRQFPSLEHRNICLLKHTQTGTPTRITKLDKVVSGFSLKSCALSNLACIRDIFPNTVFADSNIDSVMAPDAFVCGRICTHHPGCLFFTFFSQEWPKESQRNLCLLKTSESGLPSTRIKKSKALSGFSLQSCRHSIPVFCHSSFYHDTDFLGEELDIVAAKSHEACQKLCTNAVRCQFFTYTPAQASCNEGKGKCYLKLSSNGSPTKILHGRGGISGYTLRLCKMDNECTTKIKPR
Protocol: The factor XIa inhibition of the substances according to the invention is determined using a biochemical test system which utilizes the reaction of a peptidic factor XIa substrate to determine the enzymatic activity of human factor XIa. Here, factor XIa cleaves from the peptic factor XIa substrate the C-terminal aminomethylcoumarin (AMC), the fluorescence of which is measured. The determinations are carried out in microtitre plates.
Test substances are dissolved in dimethyl sulphoxide and serially diluted in dimethyl sulphoxide (3000 μM to 0.0078 μM; resulting final concentrations in the test: 50 μM to 0.00013 μM). In each case 1 μl of the diluted substance solutions is placed into the wells of white microtitre plates from Greiner (384 wells). Subsequently, the following are added successively: 20 μl of assay buffer (50 mmol/l Tris buffer pH 7.4; 100 mmol/l sodium chloride; 5 mmol/l calcium chloride; 0.1% bovine serum albumin) and 20 μl of factor XIa from Kordia (0.45 nM in assay buffer). After 15 min of incubation, the enzyme reaction is started by addition of 20 μl of the factor XIa substrate Boc-Glu(OBzl)-Ala-Arg-AMC dissolved in assay buffer (10 μM in assay buffer) from Bachem, the mixture is incubated at room temperature (22° C.) for 30 min and fluorescence is then measured (excitation: 360 nm, emission: 460 nm). The measured emissions of the test batches with test substance are compared to those of control batches without test substance (only dimethyl sulphoxide instead of test substance in dimethyl sulphoxide), and IC50 values are calculated from the concentration/activity relationships.

IC50 (human factor XIa)	Structure (SMILES)	aPTT (human and animal plasma)
1.9 nM	NC[C@H]1CC[C@H](C(=O)N[C@@H](Cc2cccc(-c3cccc(S(=O)(=O)NC4CC4)c3)c2)C(=O)Nc2ccc(-c3nnn[nH]3)cc2)CC1 [Example 6, trans-4-(Aminomethyl)-N-[(2S)-3-[3′-(cyclopropylsulphamoyl)biphenyl-3-yl]-1-oxo-1-{[4-(1H-tetrazol-5-yl)phenyl]amino}propan-2-yl]cyclohexanecarboxamide hydrochloride]	0.27 µmol/L
1.7 nM	Cc1cc(S(=O)(=O)N(C)C)ccc1-c1cccc(C[C@H](NC(=O)[C@H]2CC[C@H](CN)CC2)C(=O)Nc2ccc(-c3nnn[nH]3)cc2)c1 [Example 7, trans-4-(Aminomethyl)-N-[(2S)-3-[4′-(dimethylsulphamoyl)-2′-methylbiphenyl-3-yl]-1-oxo-1-{[4-(1H-tetrazol-5-yl)phenyl]amino}propan-2-yl]cyclohexanecarboxamide hydrochloride]	0.33 µmol/L
3.8 nM	COc1ccc(-c2cccc(C[C@H](NC(=O)[C@H]3CC[C@H](CN)CC3)C(=O)Nc3ccc(-c4nnn[nH]4)cc3)c2)cc1S(=O)(=O)N1CCOCC1 [Example 8, trans-4-(Aminomethyl)-N-[(2S)-3-[4′-methoxy-3′-(morpholin-4-ylsulphonyl)biphenyl-3-yl]-1-oxo-1-{[4-(1H-tetrazol-5-yl)phenyl]amino}propan-2-yl]cyclohexanecarboxamide hydrochloride]	0.41 µmol/L
9.6 nM	Cc1ccc(S(=O)(=O)N2CCOCC2)cc1-c1cccc(C[C@H](NC(=O)[C@H]2CC[C@H](CN)CC2)C(=O)Nc2ccc(-c3n[nH]c(=O)[nH]3)cc2)c1 [Example 9, trans-4-(Aminomethyl)-N-[(2S)-3-[2′-methyl-5′-(morpholin-4-ylsulphonyl)biphenyl-3-yl]-1-oxo-1-{[4-(5-oxo-4,5-dihydro-1H-1,2,4-triazol-3-yl)phenyl]amino}propan-2-yl]cyclohexanecarboxamide hydrochloride]	0.14 µmol/L
13 nM	Cc1ccc(S(=O)(=O)N2CCOCC2)cc1-c1cccc(C[C@H](NC(=O)[C@H]2CC[C@H](CN)CC2)C(=O)Nc2ccc3[nH]c(=O)[nH]c3c2)c1 [Example 10, trans-4-(Aminomethyl)-N-{(2S)-3-[2′-methyl-5′-(morpholin-4-ylsulphonyl)biphenyl-3-yl]-1-oxo-1-[(2-oxo-2,3-dihydro-1H-benzimidazol-5-yl)amino]propan-2-yl}cyclohexanecarboxamide hydrochloride]	0.23 µmol/L
7.9 nM	Cc1ccc(S(=O)(=O)N2CCCC2)cc1-c1cccc(C[C@H](NC(=O)[C@H]2CC[C@H](CN)CC2)C(=O)Nc2ccc3[nH]c(=O)[nH]c3c2)c1 [Example 11, trans-4-(Aminomethyl)-N-{(2S)-3-[2′-methyl-5′-(pyrrolidin-1-ylsulphonyl)biphenyl-3-yl]-1-oxo-1-[(2-oxo-2,3-dihydro-1H-benzimidazol-5-yl)amino]propan-2-yl}cyclohexanecarboxamide hydrochloride]	0.3 µmol/L
3.2 nM	Cc1ccc(S(=O)(=O)NCc2ccccc2)cc1-c1cccc(C[C@H](NC(=O)[C@H]2CC[C@H](CN)CC2)C(=O)Nc2ccc3[nH]c(=O)[nH]c3c2)c1 [Example 12, trans-4-(Aminomethyl)-N-{(2S)-3-[5′-(benzylsulphamoyl)-2′-methylbiphenyl-3-yl]-1-oxo-1-[(2-oxo-2,3-dihydro-1H-benzimidazol-5-yl)amino]propan-2-yl}cyclohexanecarboxamide hydrochloride]	0.3 µmol/L
9.2 nM	Cc1ccc(S(=O)(=O)NCc2ccccc2)cc1-c1cccc(C[C@H](NC(=O)[C@H]2CC[C@H](CN)CC2)C(=O)Nc2ccc(-c3n[nH]c(=O)[nH]3)cc2)c1 [Example 13, trans-4-(Aminomethyl)-N-[(2S)-3-[5′-(benzylsulphamoyl)-2′-methylbiphenyl-3-yl]-1-oxo-1-{[4-(5-oxo-4,5-dihydro-1H-1,2,4-triazol-3-yl)phenyl]amino}propan-2-yl]cyclohexanecarboxamide hydrochloride]	0.47 µmol/L
4.8 nM	Cc1ccc(C(=O)NC2CCNCC2)cc1-c1cccc(C[C@H](NC(=O)[C@H]2CC[C@H](CN)CC2)C(=O)Nc2ccc(-c3nnn[nH]3)cc2)c1 [Example 14, 3′-[(2S)-2-({[trans-4-(Aminomethyl)cyclohexyl]carbonyl}amino)-3-oxo-3-{[4-(1H-tetrazol-5-yl)phenyl]amino}propyl]-6-methyl-N-(piperidin-4-yl)biphenyl-3-carboxamide hydrochloride]	0.15 µmol/L
5.5 nM	Cc1ccc(C(=O)NC2C3CNCC32)cc1-c1cccc(C[C@H](NC(=O)C2CCC(CN)CC2)C(=O)Nc2ccc(-c3nnn[nH]3)cc2)c1 (stereo partly drawn) [Example 16, 3′-[(2S)-2-({[trans-4-(Aminomethyl)cyclohexyl]carbonyl}amino)-3-oxo-3-{[4-(1H-tetrazol-5-yl)phenyl]amino}propyl]-N-(3-azabicyclo[3.1.0]hex-6-yl)-6-methylbiphenyl-3-carboxamide hydrochloride]	0.25 µmol/L
4.1 nM	Cc1ccc(C[C@H](NC(=O)[C@H]2CC[C@H](CN)CC2)C(=O)Nc2ccc(-c3nnn[nH]3)cc2)cc1-c1cccc(C(=O)N2CCOCC2)c1 [Example 17, trans-4-(Aminomethyl)-N-[(2S)-3-[6-methyl-3′-(morpholin-4-ylcarbonyl)biphenyl-3-yl]-1-oxo-1-{[4-(1H-tetrazol-5-yl)phenyl]amino}propan-2-yl]cyclohexanecarboxamide hydrochloride]	0.19 µmol/L
5.7 nM	COCCOCCOCCNC(=O)c1cccc(-c2cc(C[C@H](NC(=O)[C@H]3CC[C@H](CN)CC3)C(=O)Nc3ccc(-c4nnn[nH]4)cc3)ccc2C)c1 [Example 18, 5′-[(2S)-2-({[trans-4-(Aminomethyl)cyclohexyl]carbonyl}amino)-3-oxo-3-{[4-(1H-tetrazol-5-yl)phenyl]amino}propyl]-N-{2-[2-(2-methoxyethoxy)ethoxy]ethyl}-2′-methylbiphenyl-3-carboxamide hydrochloride]	0.4 µmol/L
6 nM	Cc1ccc(C[C@H](NC(=O)[C@H]2CC[C@H](CN)CC2)C(=O)Nc2ccc(-c3nnn[nH]3)cc2)cc1-c1cccc(C(=O)NC2CCN(C(C)C)CC2)c1 [Example 19, 5′-[(2S)-2-({[trans-4-(Aminomethyl)cyclohexyl]carbonyl}amino)-3-oxo-3-{[4-(1H-tetrazol-5-yl)phenyl]amino}propyl]-2′-methyl-N-[1-(propan-2-yl)piperidin-4-yl]biphenyl-3-carboxamide hydrochloride]	0.14 µmol/L
1.8 nM	COCCOCCOCCNC(=O)c1ccc(C)c(-c2cccc(C[C@H](NC(=O)[C@H]3CC[C@H](CN)CC3)C(=O)Nc3ccc(-c4nnn[nH]4)cc3)c2)c1 [Example 20, 3′-[(2S)-2-({[trans-4-(Aminomethyl)cyclohexyl]carbonyl}amino)-3-oxo-3-{[4-(1H-tetrazol-5-yl)phenyl]amino}propyl]-N-{2-[2-(2-methoxyethoxy)ethoxy]ethyl}-6-methylbiphenyl-3-carboxamide hydrochloride]	0.24 µmol/L
2.3 nM	Cc1ccc(C(=O)NCCOCCOCCO)cc1-c1cccc(C[C@H](NC(=O)[C@H]2CC[C@H](CN)CC2)C(=O)Nc2ccc(-c3nnn[nH]3)cc2)c1 [Example 21, 3′-[(2S)-2-({[trans-4-(Aminomethyl)cyclohexyl]carbonyl}amino)-3-oxo-3-{[4-(1H-tetrazol-5-yl)phenyl]amino}propyl]-N-{2-[2-(2-hydroxyethoxy)ethoxy]ethyl}-6-methylbiphenyl-3-carboxamide hydrochloride]	0.19 µmol/L
2.4 nM	COCCOCCOCCNC(=O)c1ccc(-c2cccc(C[C@H](NC(=O)[C@H]3CC[C@H](CN)CC3)C(=O)Nc3ccc(-c4nnn[nH]4)cc3)c2)c(C)c1 [Example 22, 3′-[(2S)-2-({[trans-4-(Aminomethyl)cyclohexyl]carbonyl}amino)-3-oxo-3-{[4-(1H-tetrazol-5-yl)phenyl]amino}propyl]-N-{2-[2-(2-methoxyethoxy)ethoxy]ethyl}-2-methylbiphenyl-4-carboxamide hydrochloride]	0.34 µmol/L
